# From patent US20250303005A1, “PROSTATE SPECIFIC MEMBRANE ANTIGEN (PSMA) LIGANDS WITH IMPROVED RENAL CLEARANCE” (Deutsches Krebsforschungszentrum Stiftung des öffentlichen …, priority 2022, published 2025)
# Where two headings read alike, the source gives them in different places. Starred links: 1 amine or outer side, 2 acyl side, 3 side chain; linkers in the order of their positions; H or OH if unused. Non-standard residues stand in square brackets, D forms with d. Residues, ends and D or L forms follow the SMILES beside them. ξ: configuration not given here. *: point of attachment. DOTA = O=C(O)CN1CCN(CC(=O)O)CCN(CC(=O)*)CCN(CC(=O)O)CC1; EuK = O=C(O)CC[C@H](NC(=O)N[C@@H](CCCCN*)C(=O)O)C(=O)O; X2 = O=C(O)CCC(NC(=O)NC(CCCCN*)C(=O)O)C(=O)O; 2Nal = N[C@@H](Cc1ccc2ccccc2c1)C(=O)O; ξ2Nal = NC(Cc1ccc2ccccc2c1)C(=O)O; Trx = NC[C@H]1CC[C@H](C(=O)O)CC1; X1 = O=C(C1CCC(CN[*:1])CC1)[*:2]; Sar = CNCC(=O)O
# Legend:
# PSMA+LNCaP cells [1] = assay: Cell surface binding and internalization of 68Ga-labeled compounds; format: cell-based; conditions: specific uptake by blockage with 500 μM 2-PMPA, mean ± SD (n = 3)
# Description: (§1) PSMA+LNCaP cells (CRL-1740; ATCC; PSMA-positive) and PC-3 cells (CRL-1435; ATCC; PSMA-negative) were cultured in RPMI medium supplemented with 10% fetal calf serum and 2 mmol/L L-glutamine (all from PAA). Cells were grown at 37° C. in humidified air with 5% CO2 and were harvested using trypsin-ethylenediaminetetraacetic acid (trypsin-EDTA; 0.25% trypsin, 0.02% EDTA, Invitrogen).
# (§2) For internalization experiments, 10^5 cells per well were seeded in poly-L-lysine coated 24-well cell culture plates 24 h before incubation. After washing, the cells were incubated with 30 nM of the radiolabeled DOTA-compound (radiolabeled with ^68Ga or ^177Lu) for 45 min at 37° C. (labeling was performed with 5 nmol of precursor peptide). Specific cell uptake was determined by blockage using 500 μM 2-PMPA (2-(phosphonomethyl)pentanedioic acid). Cellular uptake was terminated by washing 3 times with 1 mL of ice-cold PBS. To remove surface-bound radioactivity, cells were incubated twice with 0.5 mL glycine-HCl in PBS (50 mM, pH=2.8) for 5 min. The cells were washed with 1 mL of ice-cold PBS and lysed using 0.3 N NaOH (0.5 mL). The surface-bound and the internalized fractions were measured in a gamma counter. The cell uptake was calculated as percent of the initially added radioactivity bound to 10^5 cells [% ID/10^5 cells] (see Table 2 and Table 2a).
# PSMA = target: T1, PSMA (Homo sapiens, UniProt Q04609); assay: Competitive cell binding assay against 68Ga-PSMA-10 on LNCaP cells
# T1 construct: in vitro using PSMA^+-cells (LNCaP); host or cells: LNCaP
# T1 sequence (Q04609 whole entry): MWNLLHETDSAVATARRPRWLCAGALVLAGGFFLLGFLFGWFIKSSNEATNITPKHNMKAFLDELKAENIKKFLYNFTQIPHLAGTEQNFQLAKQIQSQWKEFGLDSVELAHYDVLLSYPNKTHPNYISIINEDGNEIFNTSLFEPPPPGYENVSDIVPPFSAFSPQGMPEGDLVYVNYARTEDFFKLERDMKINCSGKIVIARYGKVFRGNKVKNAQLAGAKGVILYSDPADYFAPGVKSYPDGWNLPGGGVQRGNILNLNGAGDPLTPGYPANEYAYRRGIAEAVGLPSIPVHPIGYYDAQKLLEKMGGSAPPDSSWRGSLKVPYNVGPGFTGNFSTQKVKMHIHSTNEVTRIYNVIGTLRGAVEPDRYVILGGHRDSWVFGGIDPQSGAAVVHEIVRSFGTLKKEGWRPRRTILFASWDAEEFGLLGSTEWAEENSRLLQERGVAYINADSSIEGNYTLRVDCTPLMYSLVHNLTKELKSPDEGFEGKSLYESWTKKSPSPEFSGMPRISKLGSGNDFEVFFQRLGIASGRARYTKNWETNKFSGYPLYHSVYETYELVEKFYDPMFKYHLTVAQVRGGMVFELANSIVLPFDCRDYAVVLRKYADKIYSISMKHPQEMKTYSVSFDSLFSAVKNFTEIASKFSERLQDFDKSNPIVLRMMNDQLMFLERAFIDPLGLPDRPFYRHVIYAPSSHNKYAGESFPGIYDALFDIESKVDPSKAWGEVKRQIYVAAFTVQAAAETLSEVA
# Description: PSMA+LNCaP cells (CRL-1740; ATCC; PSMA-positive) and PC-3 cells (CRL-1435; ATCC; PSMA-negative) were cultured in RPMI medium supplemented with 10% fetal calf serum and 2 mmol/L L-glutamine (all from PAA). Cells were grown at 37° C. in humidified air with 5% CO2 and were harvested using trypsin-ethylenediaminetetraacetic acid (trypsin-EDTA; 0.25% trypsin, 0.02% EDTA, Invitrogen). The competitive cell binding assay and internalization experiments were performed as described previously (2). For competitive cell binding, the cells (10^5 per well) were incubated with a 0.8 nM solution of ^68Ga-labeled radioligand [Glu-urea-Lys(Ahx)]2-HBED-CC (PSMA-10, precursor ordered from ABX, Radeberg, Germany) in the presence of 12 different concentrations of DOTA-compound (0-5000 nM, 100 μL/well). After incubation, the mixture was removed and the wells were washed 3 times with PBS using a multiscreen vacuum manifold (Millipore, Billerica, MA). Cell-bound radioactivity was measured using a gamma counter (Perkin Elmer 2480, Wizard, Gamma Counter). The 50% inhibitory concentration (IC50) values were calculated by fitting the data using a nonlinear regression algorithm (GraphPad Software) (see Table 2)
# PSMA+LNCaP cells [2] = assay: Cell surface binding and internalization of 177Lu labeled compounds, without or with blocking by 2-PMPA; format: cell-based; conditions: 7.5 pmol precursor per 10^5 cells, 45 min; for Internalization Block / Surface Block: with blocking by 500 μM 2-PMPA (n = 3); for Internalization / Surface: without blocking (n = 3)
# Description: as §1, §2
# prostate cancer patients = conditions: two patients with extremely advanced and end-stage disease; cited from earlier work
# [3] = free ligands, LNCaP, radioligand 68Ga-PSMA-10 0.8 nM, mean ± SD (n = 3), read-out: ki free ligands
Compound,Specifically cell surface bound (PSMA+LNCaP cells [1]) [% AR/10^5 cells],Specifically internalized (PSMA+LNCaP cells [1]) [% AR/10^5 cells],Ki (PSMA; [3]) [nM],Internalization Block (PSMA+LNCaP cells [2]) [% AR/10^5 cells],Surface Block (PSMA+LNCaP cells [2]) [% AR/10^5 cells],Internalization (PSMA+LNCaP cells [2]) [% AR/10^5 cells],Surface (PSMA+LNCaP cells [2]) [% AR/10^5 cells],Ki (PSMA) [nM],Response in patients (prostate cancer patients)
CN(CC(=O)NCC1CCC(C(=O)NC(Cc2ccc3ccccc3c2)C(=O)NCCCCC(NC(=O)NC(CCC(=O)O)C(=O)O)C(=O)O)CC1)C(=O)CN(C)C(=O)CN(C)C(=O)CN(C)C(=O)CN(C)C(=O)CN(C)C(=O)CN(C)C(=O)CN(C)C(=O)CN(C)C(=O)CN(C)C(=O)CN1CCN(CC(=O)O)CCN(CC(=O)O)CCN(CC(=O)O)CC1 (stereo not shown) [DOTA-Sar10-Chx-2-NaI-Lys-urea-Glu],3.66 ± 1.31,2.31 ± 0.90,96.8 ± 96.4,0.00 ± 0.00,0.03 ± 0.02,0.10 ± 0.06,0.45 ± 0.08,–,–
CN(CC(=O)NC[C@H]1CC[C@H](C(=O)N[C@@H](Cc2ccc3ccccc3c2)C(=O)NCCCC[C@H](NC(=O)N[C@@H](CCC(=O)O)C(=O)O)C(=O)O)CC1)C(=O)CN(C)C(=O)CN(C)C(=O)CN1CCN(CC(=O)O)CCN(CC(=O)O)CCN(CC(=O)O)CC1 [DOTA-Sar3-Chx-2-NaI-Lys-urea-Glu] ({DOTA}-[Sar][Sar][Sar][Trx][2Nal]-EuK),4.42 ± 2.05,2.20 ± 0.98,–,0.01 ± 0.01,0.03 ± 0.01,0.13 ± 0.08,0.65 ± 0.15,29.7 ± 24.2,–
CN(CC(=O)NCC1CCC(C(=O)NC(Cc2ccc3ccccc3c2)C(=O)NCCCCC(NC(=O)NC(CCC(=O)O)C(=O)O)C(=O)O)CC1)C(=O)CN(C)C(=O)CN(C)C(=O)CN(C)C(=O)CN(C)C(=O)CN(C)C(=O)CN(C)C(=O)CN(C)C(=O)CN(C)C(=O)CN(C)C(=O)CN(C)C(=O)CN(C)C(=O)CN(C)C(=O)CN(C)C(=O)CN(C)C(=O)CN1CCN(CC(=O)O)CCN(CC(=O)O)CCN(CC(=O)O)CC1 (stereo not shown) [DOTA-Sar15-Chx-2-NaI-Lys-urea-Glu],3.71 ± 1.55,2.03 ± 1.71,74.7 ± 36,0.00 ± 0.00,0.02 ± 0.01,0.11 ± 0.05,0.52 ± 0.03,–,–
O=C([O-])CC[C@H](NC(=O)N[C@@H](CCCCNC(=O)[C@H](Cc1ccc2ccccc2c1)NC(=O)C1CCC(CNC(=O)CN2CCN(CC(=O)[O-])CCN(CC(=O)[O-])CCN(CC(=O)[O-])CC2)CC1)C(=O)[O-])C(=O)[O-].[225Ac].[H+].[H+].[H+] (stereo partly shown) [225Ac-PSMA-617],–,–,–,–,–,–,–,–,complete remission
CN(CC(=O)NCC1CCC(C(=O)NC(Cc2ccc3ccccc3c2)C(=O)NCCCCC(NC(=O)NC(CCC(=O)O)C(=O)O)C(=O)O)CC1)C(=O)CN(C)C(=O)CN(C)C(=O)CN(C)C(=O)CN(C)C(=O)CN1CCN(CC(=O)O)CCN(CC(=O)O)CCN(CC(=O)O)CC1 (stereo not shown) [DOTA-Sar5-Chx-2-NaI-Lys-urea-Glu] ({DOTA}-[Sar][Sar][Sar][Sar][Sar][X1][ξ2Nal]-X2),2.79 ± 0.50,1.99 ± 1.15,54.3 ± 33.6,0.00 ± 0.00,0.02 ± 0.01,0.10 ± 0.06,0.47 ± 0.12,–,–
"O=C(O)CC[C@H](NC(=O)N[C@@H](CCCCNC(=O)[C@H](Cc1ccc2ccccc2c1)NC(=O)[C@H]1CC[C@H](CNC(=O)CN2CCN(CC(=O)O)CCN(CC(=O)O)CCN(CC(=O)O)CC2)CC1)C(=O)O)C(=O)O [PSMA-617, reference compound]",3.47 ± 1.53,2.55 ± 1.97,–,–,–,–,–,–,–
